Test results: patent US4450269A, “Mono-5-substituted-3-chloro-4H-1,2,6-thiadiazin-4-one antifungal agents” (FMC Corporation, priority 1980, dated 1984)
Structures can show the parent of a compound that is named as a salt.

Key:
[1] = tested on: Sclerotinia fructicola; assay: Mycelial growth test; type: cell-based; conditions: SF; for inhibition at 5 ppm / inhibition at 10 ppm / inhibition at 20 ppm / inhibition at 40 ppm: Sclerotinia, 72 h, read-out: Percent Fungus Growth Inhibition; for Percent Fungus Growth Inhibition: 72 hours, hydrochloride
Text: | SF = Sclerotinia fructicola

[2] = tested on: Cercospora beticola; assay: whole plant or invertebrate; conditions: in Beta vulgaris, foliar, 24 h, read-out: Percent Disease Control, curative, sugar beet leaf spot
[3] = tested on: Fusarium solani; assay: Soil treatment, bean root rot; type: in vivo; conditions: Fusarium solani, soil, 336 h; 150 ppm suspension, 3.8 mg active per pot; read-out: Percent Disease Control, seed/soil, bean root rot
Method: In a similar manner the soil around a bean seedling was drenched with a sufficient amount of 150 ppm suspension of test chemical to provide 3.8 mg active per pot. Twenty-four hours later the soil was inoculated with a suspension of minced mycelium of Fusarium solani. The inoculated plants were then placed in a greenhouse, evaluated after fourteen days, and percent control of root rot damage calculated. The results, reported in Table III, indicate only a few of the compounds tested are effective in treating Bean Root Rot but that these provide a high degree of control.

Compound	inhibition at 5 ppm ([1]; 5 ppm) [%]	inhibition at 10 ppm ([1]; 10 ppm) [%]	inhibition at 20 ppm ([1]; 20 ppm) [%]	inhibition at 40 ppm ([1]; 40 ppm) [%]	pest or weed control at 150 ppm [2] [%]	pest or weed control at 150 ppm, 3.8 mg/pot [3] [%]	Percent Fungus Growth Inhibition ([1]; 5 ppm) [%]	Percent Fungus Growth Inhibition ([1]; 10 ppm) [%]	Percent Fungus Growth Inhibition ([1]; 20 ppm) [%]	Percent Fungus Growth Inhibition ([1]; 40 ppm) [%]
Cc1cccc(Oc2nsnc(Cl)c2=O)c1 [Compound 21, 3-chloro-5-(3-methylphenoxy)-4H--1,2,6-thiadiazin-4-one]	100	100	100	100	100	0	–	–	–	–
O=c1c(Cl)nsnc1Oc1cccc(C(F)(F)F)c1 [Compound 44, 3-chloro-5-[(3-trifluoromethyl)phenoxy]-4H--1,2,6-thiadiazin-4-one]	76	100	100	100	0	90	–	–	–	–
O=c1c(Cl)nsnc1Oc1ccc([N+](=O)[O-])cc1 [Compound 9, 3-chloro-5-(4-nitrophenoxy)-4H--1,2,6-thiadiazin-4-one]	58	76	100	100	75	0	–	–	–	–
O=c1c(Cl)nsnc1Oc1ccccc1Cl [Compound 14, 3-chloro-5-(2-chlorophenoxy)-4H--1,2,6-thiadiazin-4-one]	47	64	87	100	0	90	–	–	–	–
CC(=O)Nc1ccccc1Oc1nsnc(Cl)c1=O [Compound 43, 3-[(2-acetylamino)-phenoxy]-5-chloro-4H--1,2,6-thiadiazin-4-one]	0	0	17	22	90	0	–	–	–	–
COc1ccc(Oc2nsnc(Cl)c2=O)cc1 [Compound 5, 3-chloro-5-(4-methoxyphenoxy)4H--1,2,6-thiadiazin-4-one]	27	42	67	73	0	50	–	–	–	–
COc1cc(Cl)cc(Oc2nsnc(Cl)c2=O)c1 [Compound 52, 3-chloro-5-[(3-chloro-5-methoxy)phenoxy]-4H--1,2,6-thiadiazin-4-one]	65	81	100	100	–	–	–	–	–	–
O=c1c(Cl)nsnc1Oc1cccc(Cl)c1 [Compound 13, 3-chloro-5-(3-chlorophenoxy)-4H--1,2,6-thiadiazin-4-one]	51	67	100	100	98	75	–	–	–	–
Cc1cccc(C)c1Oc1nsnc(Cl)c1=O [Compound 24, 3-chloro-5-(2,6-dimethylphenoxy)-4H--1,2,6-thiadiazin-4-one]	100	100	100	100	50	0	–	–	–	–
Cc1ccc(Cl)c(Oc2nsnc(Cl)c2=O)c1 [Compound 56, 3-chloro-5-[(2-chloro-5-methyl)phenoxy]-4H--1,2,6-thiadiazin-4-one]	69	78	100	100	–	–	–	–	–	–
Nc1ccc(Oc2nsnc(Cl)c2=O)cc1 [Compound 27, 5-(4-aminophenoxy)-3-chloro-4H--1,2,6-thiadiazine-4-one hydrochloride]	–	–	–	–	–	–	0	21	28	86
COc1cc(Oc2nsnc(Cl)c2=O)cc(OC)c1C(C)=O [Compound 61, 3-[(4-acetyl-3,5-dimethoxy)-phenoxy]-5-chloro-4H--1,2,6-thiadiazin-4-one]	7	19	59	85	–	–	–	–	–	–
CSc1ccc(Oc2nsnc(Cl)c2=O)cc1 [Compound 39, 3-chloro-5-[(4-methylthio)phenoxy]-4H-1,2,6,-thiadiazin-4-one]	41	48	63	85	–	–	–	–	–	–
O=c1c(Cl)nsnc1Oc1c(Cl)cccc1Cl [Compound 18, 3-chloro-5-(2,6-dichlorophenoxy)-4H--1,2,6-thiadiazin-4-one]	51	64	89	100	98	–	–	–	–	–
O=c1c(Cl)nsnc1Oc1ccc(O)cc1 [Compound 35, 3-chloro-5-(4-hydroxyphenoxy)-4H-1,2,6-thiadiazin-4-one]	8	27	69	100	–	–	–	–	–	–
C[S+]([O-])c1ccc(Oc2nsnc(Cl)c2=O)cc1 (stereo not drawn) [Compound 40, 3-chloro-5-[(4-methylsulfinyl)phenoxy]-4H-1,2,6,-thiadiazin-4-one]	4	59	89	100	–	–	–	–	–	–
